In patent publication US20130316963A1, “INNATE DEFENCE REGULATORY PEPTIDE COMPOSITIONS FOR TREATMENT OF ARTHRITIS” (UNIVERSITY OF MANITOBA, priority 2010, published 2013):

Tested on: p38 MAPK
Assay: p38 MAPK activity assay (immunoprecipitation, ATF-2 Thr76 phosphorylation immunoblot) in human FLS cells
Type: cell-based
Details: IL-1β 10 ng/ml 15 min; IDR-1002 100 μg/ml 45 min prior to or at time of stimulation; FIG. 9
Protocol: Human FLS cells (5×10^4/ml) were seeded in a total volume of 20 ml per 75 cm^2 tissue culture flask in complete DMEM media containing 10% FBS for each condition. The cells were allowed to adhere overnight. Following day the media was changed to 10 ml complete DMEM containing 1% FBS. The cells were either un-stimulated or treated with IL-1β (10 ng/ml) in the presence or absence of IDR-1002 (100 μg/ml) for 15 min. IL-1β is known to induce JNK activation, and also p38 MAPK activity, after 15 min in FLS cells. Peptide IDR-1002 (100 μg/ml) was added either 45 min prior to, or at the time of stimulation with IL-1β. Total protein concentration was evaluated for each cell lysate employing micro BCA (Thermo Scientific). Kinase activities specific to JNK and to p38-MAPK were monitored employing the JNK activity assay kit and the p38 MAPK assay kit (Abcam Inc., Calif., USA) following the manufacturer's instructions. For JNK, 50 μg of total protein per cell lysate was used for immunoprecipitation employing a JNK-specific antibody. The eluate was treated with c-Jun substrate and ATP mixture. Subsequent phosporylation of c-Jun was evaluated by probing immunoblots with anti-phospho-c-Jun (Ser73) specific antibody. […] Subsequent phosporylation of ATF-2 was evaluated by probing immunoblots with a phospho-ATF-2 (Thr76) specific antibody. […]

VQRWLIVWRIRK (IDR-1002 peptide)
IL-1β-induced p38 MAPK activity and phosphorylation of ATF-2 (Thr76): abrogated
